Here are results for four compounds from patent publication US20250320193A1, “OXOISOINDOLINYL SUBSTITUTED PIPERIDINEDIONE DERIVATIVE AND USE THEREOF” (GLUETACS THERAPEUTICS (SHANGHAI) CO., LTD., priority 2022, published 2025).

Where only a bound is given, the exact number is not on record here.

In assay [1] the target is human Cereblon WT GST-tagged protein (Homo sapiens (Human), UniProt Q96SW2). Kind of assay: CRBN-binding affinity, HTRF (CEREBLON BINDING kit, CISBIO). The conditions noted are these: HTRF inhibitory activity. Put shortly:
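HTRF competition format: test compound displaces Thalidomide-Red from GST-tagged human Cereblon WT, detected with a Eu-labelled anti-GST antibody. Percent CRBN binding inhibition was derived from the 620 nm signal, normalized to solvent-control and protein-free blank wells.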
In general terms: TR-FRET usually uses a lanthanide donor and a delayed reading to cut background.

The next assay has as its target IKZF1 (Homo sapiens (Human), UniProt Q13422+Q96SW2). Kind of assay: Western blot, substrate protein expression in hPBMC: IKZF1. Type of assay: cell-based. The conditions noted are these: hPBMC, compound 500 nM, 24 hours, Western blot. Put shortly:
(§1)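 hPBMC, 1×10^6 cells/mL, 24 h compound exposure; RIPA lysis, BCA protein assay, SDS-PAGE, NC membrane immunoblot. Densitometry vs internal control → % protein remaining; degradation % = 100% − remaining; DC50 = conc. at 50% of DMSO band signal.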
On the technique in general: In western blotting, separated proteins are transferred to a membrane and probed.

In a further assay the target is IKZF3 (Homo sapiens (Human), UniProt Q96SW2+Q9UKT9). Nature of the assay: Western blot, substrate protein expression in hPBMC: IKZF3. Type of assay: cell-based. The conditions noted are these: hPBMC, compound 500 nM, 24 hours, Western blot. Put shortly:
as §1

For a further assay, the target named is GSPT1 (Homo sapiens (Human), UniProt P15170+Q96SW2). Kind of assay: Western blot, substrate protein expression in hPBMC: GSPT1. Type of assay: cell-based. The conditions noted are these: hPBMC, compound 500 nM, 24 hours, Western blot. A digest of the protocol: as §1
Sequence of GSPT1 (P15170 whole entry): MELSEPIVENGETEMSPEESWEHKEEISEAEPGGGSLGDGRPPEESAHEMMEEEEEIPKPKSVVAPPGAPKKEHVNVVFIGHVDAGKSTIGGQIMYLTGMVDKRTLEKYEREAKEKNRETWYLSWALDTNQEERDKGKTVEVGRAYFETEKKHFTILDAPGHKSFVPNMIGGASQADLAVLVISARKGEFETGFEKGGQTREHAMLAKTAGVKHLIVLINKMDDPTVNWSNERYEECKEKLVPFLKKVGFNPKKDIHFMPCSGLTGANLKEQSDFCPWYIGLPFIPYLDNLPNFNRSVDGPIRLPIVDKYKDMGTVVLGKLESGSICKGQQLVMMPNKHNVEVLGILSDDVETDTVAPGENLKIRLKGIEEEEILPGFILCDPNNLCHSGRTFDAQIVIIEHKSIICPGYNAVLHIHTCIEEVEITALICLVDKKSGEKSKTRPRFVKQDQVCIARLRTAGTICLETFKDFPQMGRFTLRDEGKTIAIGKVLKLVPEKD
Sequence of GSPT1 (Q96SW2 whole entry): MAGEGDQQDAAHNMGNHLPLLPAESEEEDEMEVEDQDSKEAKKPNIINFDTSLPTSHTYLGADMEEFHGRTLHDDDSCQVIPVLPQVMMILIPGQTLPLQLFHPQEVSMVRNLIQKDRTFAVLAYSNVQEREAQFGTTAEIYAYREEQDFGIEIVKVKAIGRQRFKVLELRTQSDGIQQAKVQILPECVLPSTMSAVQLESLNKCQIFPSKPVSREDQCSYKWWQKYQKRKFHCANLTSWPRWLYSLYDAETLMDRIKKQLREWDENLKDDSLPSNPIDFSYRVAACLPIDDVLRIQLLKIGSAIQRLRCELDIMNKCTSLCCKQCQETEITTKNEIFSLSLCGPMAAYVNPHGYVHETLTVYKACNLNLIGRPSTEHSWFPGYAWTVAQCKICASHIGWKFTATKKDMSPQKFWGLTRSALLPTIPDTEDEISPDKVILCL
Sequence of GSPT1 (Q16531 whole entry partner): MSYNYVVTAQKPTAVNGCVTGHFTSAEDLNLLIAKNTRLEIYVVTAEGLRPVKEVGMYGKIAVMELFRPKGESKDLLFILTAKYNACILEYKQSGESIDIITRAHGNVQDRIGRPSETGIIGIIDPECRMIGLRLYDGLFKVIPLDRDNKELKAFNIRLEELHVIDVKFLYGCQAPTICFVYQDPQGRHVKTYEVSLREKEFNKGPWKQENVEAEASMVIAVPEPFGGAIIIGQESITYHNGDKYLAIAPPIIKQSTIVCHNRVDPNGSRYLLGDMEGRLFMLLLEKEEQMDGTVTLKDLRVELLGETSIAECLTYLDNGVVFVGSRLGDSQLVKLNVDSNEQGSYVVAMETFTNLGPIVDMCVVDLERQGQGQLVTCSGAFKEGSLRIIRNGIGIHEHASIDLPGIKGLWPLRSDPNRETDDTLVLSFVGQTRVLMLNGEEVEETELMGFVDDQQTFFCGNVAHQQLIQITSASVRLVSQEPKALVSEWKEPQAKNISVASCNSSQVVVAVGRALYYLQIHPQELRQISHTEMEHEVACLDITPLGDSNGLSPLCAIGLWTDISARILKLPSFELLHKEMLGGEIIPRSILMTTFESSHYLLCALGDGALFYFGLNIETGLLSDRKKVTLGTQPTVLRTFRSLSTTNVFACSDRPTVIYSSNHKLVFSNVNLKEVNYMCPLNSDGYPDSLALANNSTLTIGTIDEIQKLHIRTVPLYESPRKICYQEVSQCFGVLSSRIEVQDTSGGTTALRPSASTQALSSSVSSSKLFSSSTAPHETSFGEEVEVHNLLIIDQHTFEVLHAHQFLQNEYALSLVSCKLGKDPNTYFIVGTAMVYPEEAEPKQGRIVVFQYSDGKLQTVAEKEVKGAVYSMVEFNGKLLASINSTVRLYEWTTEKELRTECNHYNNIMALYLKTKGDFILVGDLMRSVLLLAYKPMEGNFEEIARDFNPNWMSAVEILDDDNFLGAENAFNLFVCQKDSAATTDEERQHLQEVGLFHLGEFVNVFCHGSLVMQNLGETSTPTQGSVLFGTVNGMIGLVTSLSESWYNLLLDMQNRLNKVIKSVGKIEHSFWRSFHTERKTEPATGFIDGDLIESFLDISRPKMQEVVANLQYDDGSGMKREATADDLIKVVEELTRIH
Assay [2] has as its system CAL-62 (human thyroid carcinoma cells). Kind of assay: Tumor cell proliferation inhibition, CCK-8. Format: cell-based. The conditions noted are these: CAL-62 cells, CCK-8, read-out: inhibitory activity (IC50, nM) CAL-62. Put shortly: (§2)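 Growth inhibition is measured by CCK-8 cell viability; IC50 is calculated from the dose–response curve. Compounds are added 24 h after seeding, starting at 10 μM and diluted 5-fold across 10 concentrations.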

The subject of assay [3] is CCRF-CEM (human acute lymphoblastic leukemia T-cells). Nature of the assay: Tumor cell proliferation inhibition, CCK-8. Format: cell-based. The conditions noted are these: CCRF-CEM cells, CCK-8, read-out: inhibitory activity (IC50, nM) CCRF-CEM. Put shortly: as §2
Assay [4] has as its system H146 cells (human small cell lung carcinoma cells). Kind of assay: Tumor cell proliferation inhibition, CCK-8. Type of assay: cell-based. Conditions: NCI-H146, H146 cells, CCK-8, read-out: inhibitory activity (IC50, nM) H146. Put shortly:
as §2

Assay [5] has as its system Jurkat cells (human T-cell leukemia cells). Nature of the assay: Tumor cell proliferation inhibition, CCK-8. Type of assay: cell-based. The conditions noted are these: Jurkat cells, CCK-8, read-out: inhibitory activity (IC50, nM) Jurkat. Put shortly:
as §2

The subject of assay [6] is Kasumi-1 (human acute myeloid leukemia cells). Kind of assay: Tumor cell proliferation inhibition, CCK-8. Type of assay: cell-based. Conditions: Kasumi-1 cells, CCK-8, read-out: inhibitory activity (IC50, nM) Kasumi-1. Put shortly: as §2
In assay [7] the test system is MDA-MB-231 cells (human breast adenocarcinoma cells). Kind of assay: Tumor cell proliferation inhibition, CCK-8. Format: cell-based. The conditions noted are these: MDA-MB-231 cells, CCK-8, read-out: inhibitory activity (IC50, nM) MDA-MB-231. A digest of the protocol:
as §2

The test system of assay [8] is MM.1R cells (dexamethasone-resistant human multiple myeloma cells). Nature of the assay: Tumor cell proliferation inhibition, CCK-8. Type of assay: cell-based. The conditions noted are these: MM.1R cells, CCK-8, read-out: inhibitory activity (IC50, nM) MM.1R. Put shortly:
as §2

Assay [9] deals with MM.1S cells (human multiple myeloma cells). Kind of assay: Tumor cell proliferation inhibition, CCK-8. Format: cell-based. The conditions noted are these: MM1.S, MM.1S cells, CCK-8, read-out: inhibitory activity (IC50, nM) MM.1S. A digest of the protocol: as §2
For assay [10], the system named is TMD8 cells (human diffuse large B-cell lymphoma cells). Kind of assay: Tumor cell proliferation inhibition, CCK-8. Type of assay: cell-based. Conditions: TMD8 cells, CCK-8, read-out: inhibitory activity (IC50, nM) TMD8. Put shortly:
as §2

Sequence of IKZF3 (Q9UKT9 whole entry): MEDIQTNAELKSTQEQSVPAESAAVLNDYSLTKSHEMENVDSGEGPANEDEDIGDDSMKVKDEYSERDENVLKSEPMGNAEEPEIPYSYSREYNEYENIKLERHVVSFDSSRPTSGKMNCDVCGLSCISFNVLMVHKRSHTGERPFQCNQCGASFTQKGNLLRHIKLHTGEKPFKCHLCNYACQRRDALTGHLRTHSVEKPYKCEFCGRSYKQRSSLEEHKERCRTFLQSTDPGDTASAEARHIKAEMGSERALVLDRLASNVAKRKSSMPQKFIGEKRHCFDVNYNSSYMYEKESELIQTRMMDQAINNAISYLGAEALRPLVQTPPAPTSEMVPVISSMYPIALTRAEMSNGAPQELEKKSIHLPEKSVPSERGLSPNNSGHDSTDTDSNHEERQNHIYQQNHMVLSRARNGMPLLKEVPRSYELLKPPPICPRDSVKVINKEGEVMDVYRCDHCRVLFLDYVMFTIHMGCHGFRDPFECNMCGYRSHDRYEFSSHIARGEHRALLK
Sequence of IKZF3 (Q96SW2 whole entry): as the sequence (Q96SW2 whole entry) above
Sequence of IKZF3 (Q16531 whole entry partner): as the sequence (Q16531 whole entry partner) above
Sequence of human Cereblon WT GST-tagged protein (Q96SW2 whole entry): as the sequence (Q96SW2 whole entry) above
Sequence of IKZF1 (Q13422 whole entry): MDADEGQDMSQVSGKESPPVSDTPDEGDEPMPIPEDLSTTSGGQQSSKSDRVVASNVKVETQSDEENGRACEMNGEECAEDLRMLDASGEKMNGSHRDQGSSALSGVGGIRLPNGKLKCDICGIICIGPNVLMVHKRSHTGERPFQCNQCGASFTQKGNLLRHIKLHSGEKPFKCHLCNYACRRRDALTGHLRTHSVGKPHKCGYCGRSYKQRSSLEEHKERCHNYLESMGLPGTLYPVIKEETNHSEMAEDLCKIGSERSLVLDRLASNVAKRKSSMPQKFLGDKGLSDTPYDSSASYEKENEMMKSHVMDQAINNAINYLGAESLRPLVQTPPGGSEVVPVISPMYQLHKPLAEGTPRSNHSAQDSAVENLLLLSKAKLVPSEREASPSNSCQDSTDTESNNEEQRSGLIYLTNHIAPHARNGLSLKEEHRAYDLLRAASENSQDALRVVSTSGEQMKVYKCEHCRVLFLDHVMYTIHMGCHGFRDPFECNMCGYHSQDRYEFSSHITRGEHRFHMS
Sequence of IKZF1 (Q96SW2 whole entry): as the sequence (Q96SW2 whole entry) above
Sequence of IKZF1 (Q16531 whole entry partner): as the sequence (Q16531 whole entry partner) above

In general, IC50 refers to the concentration that gives 50% inhibition. Turning to `O=C1CCC(N2Cc3c(ccc(CN4CCN(C(c5cccc(F)c5)c5cccc(F)c5)CC4)c3F)C2=O)C(=O)N1` (stereo not shown) [GT-03703, 3-(5-((4-(bis(3-fluorophenyl)methyl)piperazin-1-yl)methyl)-4-fluoro-1-oxoisoindolin-2-yl)piperidine-2,6-dione], the IC50 was under 500 nM in assay [1]; 1 to 10 nM in assay [2]; under 1 nM in assay [3]; 10 to 50 nM in assay [4]; 1 to 10 nM in [5]; 1 to 10 nM in [6]. Also, the IC50 in assay [7] lay in the range of 1 to 10 nM; in assay [8], 1 to 10 nM; in [9], 1 to 10 nM; in assay [10] it was 10 to 50 nM. Further, the “substrate protein remaining % IKZF1” value on IKZF1 was “A (A represents 0% ≤ substrate protein remaining % ≤ 50%)”. At IKZF3, the “substrate protein remaining % IKZF3” value is listed as “A (A represents 0% ≤ substrate protein remaining % ≤ 50%)”. In addition, the “substrate protein remaining % GSPT1” value at GSPT1 was “A (A represents 0% ≤ substrate protein remaining % ≤ 50%)”.

Regarding `O=C1CCC(N2Cc3c(ccc(CN4CCN(C(c5ccccc5)c5ccccn5)CC4)c3F)C2=O)C(=O)N1` (stereo not shown) [GT-03832, 3-(4-fluoro-1-oxo-5-((4-(phenyl(pyridin-2-yl)methyl)piperazin-1-yl)methyl)isoindolin-2-yl)piperidine-2,6-dione], the IC50 in assay [1] lay in the range of 500 to 1000 nM; in assay [2], 1 to 10 nM; in assay [3], 1 to 10 nM; in assay [4] it was 50 to 100 nM; in assay [5], 1 to 10 nM; in assay [6] it was 10 to 50 nM. Also, the IC50 was in the range of 10 to 50 nM in assay [7], 1 to 10 nM in [8], 1 to 10 nM in assay [9] and 100 to 500 nM in assay [10]. Further, the “substrate protein remaining % IKZF1” value on IKZF1 was “B (B represents substrate protein remaining % > 50%)”. Also, the “substrate protein remaining % IKZF3” value on IKZF3 was “A (A represents 0% ≤ substrate protein remaining % ≤ 50%)”. The “substrate protein remaining % GSPT1” value on GSPT1 is on record as “A (A represents 0% ≤ substrate protein remaining % ≤ 50%)”.

As for `O=C1CCC(N2Cc3cc(CN4CCN(C(c5ccccc5)c5ccccn5)CC4)c(F)cc3C2=O)C(=O)N1` (stereo not shown) [GT-03833, 3-(6-fluoro-1-oxo-5-((4-(phenyl(pyridin-2-yl)methyl)piperazin-1-yl)methyl)isoindolin-2-yl)piperidine-2,6-dione], the IC50 was 1000 to 1900 nM in [1]; 1 to 10 nM in [2]; under 1 nM in assay [3]; 10 to 50 nM in assay [4]; 1 to 10 nM in assay [5]; 1 to 10 nM in assay [6]. The IC50 in [7] lay in the range of 10 to 50 nM; in [8], 1 to 10 nM; in assay [9] it was 1 to 10 nM; in assay [10], 10 to 50 nM. For the same compound, the “substrate protein remaining % IKZF1” value on IKZF1 was “B (B represents substrate protein remaining % > 50%)”. At IKZF3, the “substrate protein remaining % IKZF3” value is “A (A represents 0% ≤ substrate protein remaining % ≤ 50%)”. The “substrate protein remaining % GSPT1” value on GSPT1 is listed as “A (A represents 0% ≤ substrate protein remaining % ≤ 50%)”.

For `O=C1CCC(N2Cc3cc(CN4CCN(C(c5ccccc5)c5ccccn5)CC4)ccc3C2=O)C(=O)N1` (stereo not shown) [GT-03835, 3-(1-oxo-5-((4-(phenyl(pyridin-2-yl)methyl)piperazin-1-yl)methyl)isoindolin-2-yl)piperidine-2,6-dione], the IC50 in [1] fell in the range of 500 to 1000 nM; in assay [2] it was 1 to 10 nM; in assay [3] it was 1 to 10 nM; in assay [4] it was 50 to 100 nM; in assay [5] it was 1 to 10 nM; in [6] it was 1 to 10 nM. For the same compound, the IC50 in assay [7] lay within 10 to 50 nM; in [8], 1 to 10 nM; in [9] it was 1 to 10 nM; in [10], 100 to 500 nM. Besides, the “substrate protein remaining % IKZF1” value at IKZF1 is given as “A (A represents 0% ≤ substrate protein remaining % ≤ 50%)”. Also, the “substrate protein remaining % IKZF3” value at IKZF3 was “A (A represents 0% ≤ substrate protein remaining % ≤ 50%)”. The “substrate protein remaining % GSPT1” value on GSPT1 is reported as “A (A represents 0% ≤ substrate protein remaining % ≤ 50%)”.
